Patent US20240200003A1, “DEVICES AND METHODS FOR IN VITRO MODELING OF METASTATIC CANCER” (XYLYX BIO, INC., priority 2020, published 2024)
Values joined by “and” are separate entries in the source; they are usually repeats but may differ in a detail not shown here. Identical values can stand only once. Like-named read-outs stand apart in the source and are kept apart here. Blank lines part the entries; values can stand above or below the molecule they belong to.

Tests used:
[1] = Diffusion assay through lung ECM hydrogel; type: physicochemical
Text: The difference in IC50 values of the three drugs in this study are attributable to the different cellular mechanism that each drug targets as well as expression of and access to each target. Erlotinib is an inhibitor of epidermal growth factor receptor (EGFR) tyrosine kinase, whereas Etoposide inhibits DNA topoisomerase II, which prevents DNA ligation and ultimately causes DNA strands to break. KPT-185 induces apoptosis as a selective inhibitor of nuclear export (SINE) compound. […] Another important consideration for drug testing in 3D culture systems is drug permeability through the ECM and cell membrane.

[2] = tested on: Human lung adenocarcinoma A549 cells; assay: XTT cell viability / IC50 of anti-cancer drugs, A549 cells in 3D lung tumor model; type: cell-based; details: for IC50: 72 h drug
Method: (§1) Cell Expansion. […] Forming 3D Lung Tumor Model. […] Drug Treatment. […] After 72 hours, cell viability was assayed. […] Cell Proliferation Assay. […] Data Analysis.

[3] = tested on: Human lung adenocarcinoma Jacket cells; assay: XTT cell viability / IC50 of anti-cancer drugs, Jacket cells in 3D lung tumor model; type: cell-based; details: for growth inhibition (cell viability): Jacket cells, doses 0.1-10 μM, 3D TissueSpec® Lung ECM Hydrogel and 2D plastic
Method: as §1

[4] = tested on: MCF-7 and MB-231 breast cancer cells; details: previous studies; cited from earlier work
[5] = clinical trials; cited from earlier work
[6] = tested on: breast cancer cells T47-D; assay: Viability assay of breast cancer cells embedded in TissueSpec ECM hydrogels; type: cell-based, human; set-up: dose or concentration left out as unconfirmed; details: 72 hours, Bone, Liver, Lung ECM Hydrogels, Matrigel, plastic
[7] = Homo sapiens, A549, 72 h, A549 cells in Matrigel®
[8] = Homo sapiens, A549, 72 h, A549 cells in TissueSpec® Lung ECM Hydrogel (3D)
[9] = Homo sapiens, A549, 72 h, A549 cells on Plastic (no ECM), 2D
[10] = Homo sapiens, 72 h, Jacket cells in Matrigel®, 72 h drug, read-out: IC50
[11] = Homo sapiens, 72 h, Jacket cells in TissueSpec® Lung ECM Hydrogel (3D), 72 h drug, read-out: IC50
[12] = Homo sapiens, 72 h, Jacket cells on Plastic (no ECM), 2D, 72 h drug, read-out: IC50
[13] = Jacket cells in TissueSpec® Lung ECM Hydrogel, reproducibility, two rounds, read-out: IC50 in two separate rounds of testing

SMILES: CC1=CC(C)(C)N(C)c2cc3[o+]c4cc5c(cc4c(-c4cc(NC(=O)c6ccc(CCl)cc6)ccc4C(=O)[O-])c3cc21)C(C)=CC(C)(C)N5C.CC1=CC(C)(C)N(C)c2cc3[o+]c4cc5c(cc4c(-c4ccc(NC(=O)c6ccc(CCl)cc6)cc4C(=O)[O-])c3cc21)C(C)=CC(C)(C)N5C [CellTracker Red CMTPX]
diffusion speed through TissueSpec® Lung ECM Hydrogel [1]: ≥ 1.3 mm/h

SMILES: COc1cccc2c1C(=O)c1c(O)c3c(c(O)c1C2=O)C[C@@](O)(C(=O)CO)C[C@@H]3O[C@H]1C[C@H](N)[C@H](O)[C@H](C)O1 [doxorubicin]
resistance when cultured in Matrigel® [4]: more resistant to doxorubicin when cultured in Matrigel®

SMILES: CNC(=O)c1cc(Oc2ccc(NC(=O)Nc3ccc(Cl)c(C(F)(F)F)c3)cc2)ccn1 [sorafenib]
HCC patient plasma concentration [5]: 2 mg/L and 4 μM

SMILES: CC/C(=C(\c1ccccc1)c1ccc(OCCN(C)C)cc1)c1ccccc1 [tamoxifen, Tamoxifen]
differential viability response by substrate [6]: cells embedded in lung and bone ECM are more resistant than cells embedded in liver, matrigel or plastic

The next lines start with results.

IC50 [2, 7]: 57.5 µM
IC50 [2, 8]: 134 µM
IC50 [2, 9]: 36.4 µM
IC50 [3, 10]: 8.7 µM
IC50 [3, 11]: 7.5 µM
IC50 [3, 12]: 5.2 µM
SMILES: C#Cc1cccc(Nc2ncnc3cc(OCCOC)c(OCCOC)cc23)c1 [Erlotinib]
growth inhibition (cell viability) ([2]; A549 cells, doses 0.1-10 μM, 3D TissueSpec® Lung ECM Hydrogel and plastic): dose-dependent growth inhibition

IC50 [2, 7]: 35.5 µM
IC50 [2, 8]: 16.6 µM
IC50 [2, 9]: 40.3 µM
IC50 [3, 10]: 15.8 µM
IC50 [3, 11]: 3.7 µM
IC50 [3, 12]: 4.4 µM
IC50 ([3]; Homo sapiens, Jacket cells in TissueSpec® Lung ECM Hydrogel, reproducibility, two rounds, read-out: IC50 in two separate rounds of testing): 3.8 µM
IC50 ([3]; Jacket cells in Matrigel®, reproducibility, two rounds, read-out: IC50 in two separate rounds of testing): 0.7 µM
IC50 [3, 13]: 4 µM
SMILES: COc1cc([C@@H]2c3cc4c(cc3[C@@H](O[C@@H]3O[C@@H]5CO[C@@H](C)O[C@H]5[C@H](O)[C@H]3O)[C@H]3COC(=O)[C@H]23)OCO4)cc(OC)c1O [Etoposide]
growth inhibition (cell viability) [3]: dose-dependent growth inhibition

IC50 ([2]; A549 cells in Matrigel®): 4.2 µM
IC50 ([2]; A549 cells in TissueSpec® Lung ECM Hydrogel (3D)): 2.3 µM
IC50 ([2]; A549 cells on Plastic (no ECM), 2D): 8.8 µM
IC50 ([3]; Jacket cells in Matrigel®, 72 h drug, read-out: IC50): 4.3 µM
IC50 ([3]; Jacket cells in TissueSpec® Lung ECM Hydrogel (3D), 72 h drug, read-out: IC50): 0.4 µM
IC50 [3, 13]: 0.4 µM
IC50 ([3]; Jacket cells on Plastic (no ECM), 2D, 72 h drug, read-out: IC50): 0.2 µM
SMILES: COc1cc(-c2ncn(/C=C\C(=O)OC(C)C)n2)cc(C(F)(F)F)c1 [KPT-185]
growth inhibition (cell viability) [3]: dose-dependent growth inhibition
